Patent publication US20240092835A1, “NOVEL PEPTIDES CAPABLE OF ALTERING NK CELL ACTIVITY” (Massachusetts Institute of Technology, priority 2022, published 2024)

Legend:
[1] = system: NKG2A+/NKG2C− NK cells; test: NK cell activation markers in NKG2A+/NKG2C- NK cells incubated with peptide and K562 expressing HLA-E (inhibition); format: cell-based, human; conditions: for effect on NKG2A+/NKG2C− NK cell inhibition (in words): K562 expressing HLA-E, CD107a, IFNG, TNF, CCL3; for percentage of CCL3+ NK cells / percentage of CD107a+ NK cells / percentage of IFNG+ NK cells / percentage of TNF+ NK cells: NKG2A+/NKG2C- NK cells, K562/HLA-E
How it was run: (§1)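 K562 + HLA-E, pulsed with human/CMV proteome peptides → incubated with sorted NK subsets → surface marker staining, % positive cells. Increase = activation; decrease = inhibition.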

[2] = system: NKG2A−/NKG2C+ NK cells; test: NK cell activation markers in NKG2A-/NKG2C+ NK cells incubated with peptide and K562 expressing HLA-E (activation); format: cell-based, human; conditions: for effect on NKG2A−/NKG2C+ NK cell activation (in words): K562 expressing HLA-E, CD107a, IFNG, TNF, CCL3; for percentage of CCL3+ NK cells / percentage of CD107+ NK cells / percentage of IFNG+ NK cells / percentage of TNF+ NK cells: NKG2A-/NKG2C+ NK cells, K562/HLA-E
How it was run: as §1

[3] = molecular target: T1, HLA-E (Homo sapiens, UniProt P13747); test: HLA-E surface stabilization assay with RMA-S/HLA-E cells; format: cell-based; conditions: 30 μM peptide, 16 hours, anti-HLA-E antibody
T1 construct: expressed in transfected cells; host or cells: RMA-S/HLA-E cells (antigen processing-defective lymphoma cell line)
Experimental: HLA-E surface expression was assessed by measuring geometric mean fluorescence intensity (GeoMFI) in RMA-S cells following immunofluorescence staining with an anti-HLA-E antibody (Table 14). Increased GeoMFI was indicative of increased HLA-E surface expression stability following novel peptide exposures (FIG. 3).

[4] = system: NKG2A−/NKG2C− NK cells; test: NK cell activation markers in control NKG2A-/NKG2C- NK cells incubated with peptide and K562 expressing HLA-E; format: cell-based, human
How it was run: as §1

T1 sequence (P13747 22-358): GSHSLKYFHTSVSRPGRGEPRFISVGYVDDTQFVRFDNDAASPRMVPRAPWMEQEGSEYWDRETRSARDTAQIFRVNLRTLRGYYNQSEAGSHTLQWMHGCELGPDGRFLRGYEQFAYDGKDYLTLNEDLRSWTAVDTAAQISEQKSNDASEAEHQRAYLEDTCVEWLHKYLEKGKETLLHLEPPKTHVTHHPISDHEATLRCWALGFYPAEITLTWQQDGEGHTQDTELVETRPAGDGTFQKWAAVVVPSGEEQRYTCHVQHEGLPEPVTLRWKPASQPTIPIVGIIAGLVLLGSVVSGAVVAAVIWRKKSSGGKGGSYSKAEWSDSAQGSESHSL
T1 sequence (P61769 21-119 partner): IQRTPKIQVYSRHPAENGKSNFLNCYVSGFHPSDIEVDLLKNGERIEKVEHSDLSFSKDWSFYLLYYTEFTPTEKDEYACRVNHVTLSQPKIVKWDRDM

VMPGRTLCF [human11, peptide TACR3 226-234 derived from the human proteome]
effect on NKG2A+/NKG2C− NK cell inhibition (in words) [1]: strong inhibitory | percentage of CCL3+ NK cells ([1]; Trial 1): 4.05% | percentage of CD107a+ NK cells ([1]; Trial 1): 0.35% | percentage of IFNG+ NK cells ([1]; Trial 1): 0.13% | percentage of TNF+ NK cells ([1]; Trial 1): 0.05% | percentage of CCL3+ NK cells ([1]; Trial 2): 7.9% | percentage of CD107a+ NK cells ([1]; Trial 2): 1.08% | percentage of IFNG+ NK cells ([1]; Trial 2): 0.53% | percentage of TNF+ NK cells ([1]; Trial 2): 0.21% | percentage of CCL3+ NK cells ([1]; Trial 3): 3.93% | percentage of CD107a+ NK cells ([1]; Trial 3): 1.25% | percentage of IFNG+ NK cells ([1]; Trial 3): 0.6% | percentage of TNF+ NK cells ([1]; Trial 3): 0.35% | percentage of CCL3+ NK cells ([1]; Trial 4): 1.77% | percentage of CD107a+ NK cells ([1]; Trial 4): 1.09% | percentage of IFNG+ NK cells ([1]; Trial 4): 0.29% | percentage of TNF+ NK cells ([1]; Trial 4): 0.23% | percentage of CCL3+ NK cells ([1]; Trial 5): 2.68% | percentage of CD107a+ NK cells ([1]; Trial 5): 0.66% | percentage of IFNG+ NK cells ([1]; Trial 5): 0.09% | percentage of TNF+ NK cells ([1]; Trial 5): 0% | percentage of CCL3+ NK cells ([1]; Trial 6): 1.02% | percentage of CD107a+ NK cells ([1]; Trial 6): 1.02% | percentage of IFNG+ NK cells ([1]; Trial 6): 0.05% | percentage of TNF+ NK cells ([1]; Trial 6): 0% | effect on NKG2A−/NKG2C+ NK cell activation (in words) [2]: strong activating effects | percentage of CCL3+ NK cells ([2]; Trial 1): 72.1% | percentage of CD107+ NK cells ([2]; Trial 1): 70.6% | percentage of IFNG+ NK cells ([2]; Trial 1): 63.1% | percentage of TNF+ NK cells ([2]; Trial 1): 57.2% | percentage of CCL3+ NK cells ([2]; Trial 2): 83.5% | percentage of CD107+ NK cells ([2]; Trial 2): 79.9% | percentage of IFNG+ NK cells ([2]; Trial 2): 76.4% | percentage of TNF+ NK cells ([2]; Trial 2): 71.3% | percentage of CCL3+ NK cells ([2]; Trial 3): 80.8% | percentage of CD107+ NK cells ([2]; Trial 3): 81% | percentage of IFNG+ NK cells ([2]; Trial 3): 76.8% | percentage of TNF+ NK cells ([2]; Trial 3): 72% | percentage of CCL3+ NK cells ([2]; Trial 4): 65% | percentage of CD107+ NK cells ([2]; Trial 4): 66.8% | percentage of IFNG+ NK cells ([2]; Trial 4): 59.4% | percentage of TNF+ NK cells ([2]; Trial 4): 53.6% | percentage of CCL3+ NK cells ([2]; Trial 5): 69.8% | percentage of CD107+ NK cells ([2]; Trial 5): 70.2% | percentage of IFNG+ NK cells ([2]; Trial 5): 65% | percentage of TNF+ NK cells ([2]; Trial 5): 62.5% | percentage of CCL3+ NK cells ([2]; Trial 6): 39.9% | percentage of CD107+ NK cells ([2]; Trial 6): 42.5% | percentage of IFNG+ NK cells ([2]; Trial 6): 35.3% | percentage of TNF+ NK cells ([2]; Trial 6): 33.5% | HLA-E surface expression stability (GeoMFI) ([3]; Trial 1): 3152 GeoMFI | HLA-E surface expression stability (GeoMFI) ([3]; Trial 2): 2914 GeoMFI | HLA-E surface expression stability (GeoMFI) ([3]; Trial 3): 3432 GeoMFI | HLA-E surface expression stability (GeoMFI) ([3]; Trial 4): 3610 GeoMFI | percentage CCL3+ NK cells ([4]; Trial 1): 27.1% | percentage CD107+ NK cells ([4]; Trial 1): 21.7% | percentage TNF+ NK cells ([4]; Trial 1): 3.75% | percentage of IFNG+ NK cells ([4]; Trial 1): 11.4% | percentage CCL3+ NK cells ([4]; Trial 2): 49.5% | percentage CD107+ NK cells ([4]; Trial 2): 28.7% | percentage TNF+ NK cells ([4]; Trial 2): 7.72% | percentage of IFNG+ NK cells ([4]; Trial 2): 21.3% | percentage CCL3+ NK cells ([4]; Trial 3): 44.1% | percentage CD107+ NK cells ([4]; Trial 3): 38.6% | percentage TNF+ NK cells ([4]; Trial 3): 14.8% | percentage of IFNG+ NK cells ([4]; Trial 3): 33.5% | percentage CCL3+ NK cells ([4]; Trial 4): 30.9% | percentage CD107+ NK cells ([4]; Trial 4): 28.9% | percentage TNF+ NK cells ([4]; Trial 4): 9.48% | percentage of IFNG+ NK cells ([4]; Trial 4): 18.5% | percentage CCL3+ NK cells ([4]; Trial 5): 18.3% | percentage CD107+ NK cells ([4]; Trial 5): 14.9% | percentage TNF+ NK cells ([4]; Trial 5): 3.82% | percentage of IFNG+ NK cells ([4]; Trial 5): 10.5% | percentage CCL3+ NK cells ([4]; Trial 6): 13.7% | percentage CD107+ NK cells ([4]; Trial 6): 14.8% | percentage TNF+ NK cells ([4]; Trial 6): 2.69% | percentage of IFNG+ NK cells ([4]; Trial 6): 6.09%

VMPPRTLLL [human15, peptide HLA-A 3-11 derived from the human proteome]
effect on NKG2A+/NKG2C− NK cell inhibition (in words) [1]: strong inhibitory | percentage of CCL3+ NK cells ([1]; Trial 1): 1.79% | percentage of CD107a+ NK cells ([1]; Trial 1): 0.49% | percentage of IFNG+ NK cells ([1]; Trial 1): 0.05% | percentage of TNF+ NK cells ([1]; Trial 1): 0.01% | percentage of CCL3+ NK cells ([1]; Trial 2): 1.6% | percentage of CD107a+ NK cells ([1]; Trial 2): 0.79% | percentage of IFNG+ NK cells ([1]; Trial 2): 0.3% | percentage of TNF+ NK cells ([1]; Trial 2): 0.27% | percentage of CCL3+ NK cells ([1]; Trial 3): 1.12% | percentage of CD107a+ NK cells ([1]; Trial 3): 0.73% | percentage of IFNG+ NK cells ([1]; Trial 3): 0.44% | percentage of TNF+ NK cells ([1]; Trial 3): 0.19% | percentage of CCL3+ NK cells ([1]; Trial 4): 0.75% | percentage of CD107a+ NK cells ([1]; Trial 4): 0.75% | percentage of IFNG+ NK cells ([1]; Trial 4): 0.2% | percentage of TNF+ NK cells ([1]; Trial 4): 0.18% | percentage of CCL3+ NK cells ([1]; Trial 5): 3.7% | percentage of CD107a+ NK cells ([1]; Trial 5): 1.04% | percentage of IFNG+ NK cells ([1]; Trial 5): 0.19% | percentage of TNF+ NK cells ([1]; Trial 5): 0.16% | percentage of CCL3+ NK cells ([1]; Trial 6): 2.09% | percentage of CD107a+ NK cells ([1]; Trial 6): 0.52% | percentage of IFNG+ NK cells ([1]; Trial 6): 0.24% | percentage of TNF+ NK cells ([1]; Trial 6): 0.05% | effect on NKG2A−/NKG2C+ NK cell activation (in words) ([2]; listed as SEQ ID NO. 14): strong activating effects | effect on NKG2A−/NKG2C+ NK cell activation (in words) ([2]; listed as h15): strong inhibitory and activating effects | percentage of CCL3+ NK cells ([2]; Trial 1): 79.5% | percentage of CD107+ NK cells ([2]; Trial 1): 78.4% | percentage of IFNG+ NK cells ([2]; Trial 1): 66.7% | percentage of TNF+ NK cells ([2]; Trial 1): 52.1% | percentage of CCL3+ NK cells ([2]; Trial 2): 89.7% | percentage of CD107+ NK cells ([2]; Trial 2): 86% | percentage of IFNG+ NK cells ([2]; Trial 2): 79.9% | percentage of TNF+ NK cells ([2]; Trial 2): 71.8% | percentage of CCL3+ NK cells ([2]; Trial 3): 86.8% | percentage of CD107+ NK cells ([2]; Trial 3): 88.2% | percentage of IFNG+ NK cells ([2]; Trial 3): 78.8% | percentage of TNF+ NK cells ([2]; Trial 3): 68.2% | percentage of CCL3+ NK cells ([2]; Trial 4): 69% | percentage of CD107+ NK cells ([2]; Trial 4): 68.9% | percentage of IFNG+ NK cells ([2]; Trial 4): 60.9% | percentage of TNF+ NK cells ([2]; Trial 4): 52.6% | percentage of CCL3+ NK cells ([2]; Trial 5): 78.9% | percentage of CD107+ NK cells ([2]; Trial 5): 78% | percentage of IFNG+ NK cells ([2]; Trial 5): 71.9% | percentage of TNF+ NK cells ([2]; Trial 5): 66.6% | percentage of CCL3+ NK cells ([2]; Trial 6): 58.4% | percentage of CD107+ NK cells ([2]; Trial 6): 56.2% | percentage of IFNG+ NK cells ([2]; Trial 6): 44.1% | percentage of TNF+ NK cells ([2]; Trial 6): 36.3% | HLA-E surface expression stability (GeoMFI) ([3]; Trial 1): 3783 GeoMFI | HLA-E surface expression stability (GeoMFI) ([3]; Trial 2): 4068 GeoMFI | HLA-E surface expression stability (GeoMFI) ([3]; Trial 3): 4205 GeoMFI | HLA-E surface expression stability (GeoMFI) ([3]; Trial 4): 4760 GeoMFI | percentage CCL3+ NK cells ([4]; Trial 1): 34% | percentage CD107+ NK cells ([4]; Trial 1): 25.7% | percentage TNF+ NK cells ([4]; Trial 1): 3.42% | percentage of IFNG+ NK cells ([4]; Trial 1): 15.5% | percentage CCL3+ NK cells ([4]; Trial 2): 55.5% | percentage CD107+ NK cells ([4]; Trial 2): 34.1% | percentage TNF+ NK cells ([4]; Trial 2): 9.68% | percentage of IFNG+ NK cells ([4]; Trial 2): 25.4% | percentage CCL3+ NK cells ([4]; Trial 3): 46.7% | percentage CD107+ NK cells ([4]; Trial 3): 43.7% | percentage TNF+ NK cells ([4]; Trial 3): 14.8% | percentage of IFNG+ NK cells ([4]; Trial 3): 34.7% | percentage CCL3+ NK cells ([4]; Trial 4): 34.3% | percentage CD107+ NK cells ([4]; Trial 4): 29.6% | percentage TNF+ NK cells ([4]; Trial 4): 10.3% | percentage of IFNG+ NK cells ([4]; Trial 4): 20.3% | percentage CCL3+ NK cells ([4]; Trial 5): 24.7% | percentage CD107+ NK cells ([4]; Trial 5): 18.9% | percentage TNF+ NK cells ([4]; Trial 5): 6.97% | percentage of IFNG+ NK cells ([4]; Trial 5): 14.7% | percentage CCL3+ NK cells ([4]; Trial 6): 26.4% | percentage CD107+ NK cells ([4]; Trial 6): 21.1% | percentage TNF+ NK cells ([4]; Trial 6): 5.43% | percentage of IFNG+ NK cells ([4]; Trial 6): 11.9%
